From patent US9249115B2, “N,N1 substituted piperazines having combined antiaggregant, anticoagulant and vasodilatory activity, and method for producing same” (Vertex Closed Joint Stock Company, priority 2011, dated 2016)

How the values were obtained:
[1] = test system: experimental photothrombosis; experiment: Experimental photothrombosis model, arterial blood velocity; assay type: in vivo, Wistar male rats
Method: The studies were done on Wistar male rats with mass of 230±30 g (laboratory animals nursery “Rappolovo”, RAMS). The animals were kept with unlimited food (standard ration for laboratory rats K-120 by <<Inform-korm>>, Russia) and water allowance. […]
Thrombosis modeling: the drugs were introduced into left femoral vein, in 50 min afterwards 1 ml of Bengal rose A photosensitizer (Acros Organics, USA) solution was introduced with dose of 17 mg/kg [Boselli 2007, Petrischev 2009]. Then the incision of internal surface of animal right thigh about 2 cm in length was made. The section of the femoral vein about 5 mm in length was released from surrounding tissues and separated from neurovascular bundle. Beneath this section of the vein the black non-transparent plastic strip 3 mm in width was laid to screen off the vein and surrounding tissues from radiation. The irradiation was done using diode laser <<DPSS-laser>> (Diode Pumped Solid State Laser, South Korea) with 532 nm wavelength and 60 mW power. The area of irradiation was 1 mm^2, exposing time was 40 min. The blood flow in femoral artery was measured by high frequency Doppler ultrasonography method (<<Minimax-Doppler-K>> apparatus, frequency of sensor was 20 MHz). The blood velocity alteration due to irradiation was measured (Table 9).

[2] = test system: Ristocetin-induced thrombocyte aggregation; experiment: Ristocetin-induced thrombocyte aggregation, donor human thrombocyte enriched plasm; assay type: cell-based; conditions: ristocetin inductor; for MA (60 c), %: amplitude at 60 s
Method: (§1) The study of antiaggregant and anticoagulant properties of N,N′-substituted piperazines on the sample of donor human blood. The blood was collected by donor ulnar vein punction with dry sharp needle without syringe. The administration of drugs that influence on thrombocyte function was cancelled in 7÷10 days before the experiment.
(§2) In graduated plastic centrifuge tube 1 ml of 3.8% basic trisodium citrate solution with pH=7.4 was placed. The ulnar vein was punctuated, the freely effluent blood was collected up to 10 ml mark, the mixture was instantly stirred to prevent air bubbles appearance. The collected and stabilized blood was split in two 5 ml portions in two tubes.
(§3) To obtain thrombocyte enriched plasm the stabilized blood was spinned at 1000 rpm (150 g) for 8 min at room temperature. The repeated spinning of the blood at 3200 rpm (2300 g) for 20 min at 22° C. yielded thrombocyte depleted plasm.
(§4) The study of anticoagulant activity was done within 2 h after thrombocyte enriched plasm obtaining. The plasm was normalized to achieve thrombocyte concentration of 200-250×10^9/L by addition of thrombocyte-free plasm. The concentration of thrombocytes was measured on SOLAR AR 2110 analyzer.
(§5) Antiaggregant properties of N,N′-substituted piperazines were evaluated by their influence on thrombocyte aggregation in tests with ADP-, collagen- and ristocetin-induced aggregation. To dissolve N,N′-substituted piperazines and to dilute reagents Tris-HCl-buffer with pH=7.4 was used.
(§6) As the general characteristic of thrombocyte aggregation activity the maximum amplitude (MA) of aggregation was taken on. That is the peak value of transmittance coefficient of the sample after aggregation agent introduction expressed in % relative to the transmittance of thrombocyte-free plasm. The response was registered on ascending linear segment of aggregation curve for 16 s.
(§7) The measurements were done using 4-channel CHRONO-LOG 490-4D analyzer (CHRONO-LOG, USA). The temperature in the cell was 37° C., the spinning speed of magnetic stirrer was 1200 rpm.
(§8) In a cuvette 0.5 ml of N,N′-substituted piperazine solution was placed, then 0.4 ml of normalized thrombocyte plasm was added. The mixture was stirred and incubated at 37° C. for 5 min. The cuvette was placed in aggregometer, then 0.05 ml of aggregation inductor solution was added (ADP or collagen or ristocetin). Thrombocyte aggregation was measured for 3 min.
To study ristocetin-induced thrombocyte aggregation CHRONO-PAR RISTOCETIN reagent (CHRONO-LOG, USA) was diluted with buffer solution until ristocetin concentration reached 12 mg/ml. Thrombocyte aggregation amplitude was measured in 60 s after the beginning of the reaction.

[3] = test system: thrombocyte depleted plasm coagulation; experiment: Activated partial thromboplastin time (APTT), anticoagulant properties; assay type: biochemical, human; conditions: for APTT: thrombocyte depleted plasm
Method: as §1, §2, §3
To study anticoagulant properties of N,N′-substituted piperazines activated partial thromboplastin time (APTT) was measured. That is the ability of N,N′-substituted piperazines to increase thrombocyte depleted plasm coagulation time compared to the ability of control sample. The set of reagents for APTT determination (Russian Scientific Research Institute of Hematology and Transfusiology Ministry of Health of Russian Federation by Technical Regulation 9398-214-01966456-99) and COAG-A-MATE® XM coagulometer (ORGANON TEKNIKA, USA) were used.
The solutions of N,N′-substituted piperazines were mixed with thrombocyte depleted plasm at 1:1 ratio, then 0.1 ml of APTT reagent was added, the mixture was incubated in the cuvette for 5 min at 37° C., then 0.1 ml of 0.277% CaCl2 solution was added. The time of coagulation (in seconds) was measured.

[4] = test system: Collagen-induced thrombocyte aggregation; experiment: Collagen-induced thrombocyte aggregation, donor human thrombocyte enriched plasm; assay type: cell-based; conditions: collagen inductor; for MA, %: human thrombocyte plasm
Method: as §1, §2, §3, §4, §5, §6, §7, §8
In collagen-induced thrombocyte aggregation test CHRONO-PAR COLLAGEN reagent (CHRONO-LOG, USA) was diluted with buffer solution until collagen concentration reached 10 µg/ml.

[5] = test system: ADP-induced thrombocyte aggregation; experiment: ADP-induced thrombocyte aggregation, donor human thrombocyte enriched plasm; assay type: cell-based; conditions: ADP inductor; for MA, %: human thrombocyte plasm
Method: as §1, §2, §3, §4, §5, §6, §7, §8
ADP-induced reversible thrombocyte aggregation test utilized CHRONO-PAR ADP reagent (CHRONO-LOG, USA) with 10 mol concentration. Primary (reversible) thrombocyte aggregation was evaluated by the response on addition of ADP threshold dose (ADP concentration is 1 mol) to plasm.

[6] = Homo sapiens, 0.5 mmol/L, read-out: (MA0-MAx): MA0 * 100%
[7] = Homo sapiens, 1.25 mmol/L, read-out: (MA0-MAx): MA0 * 100%

COc1ccc(CN2CCN(CC(O)CS(=O)(=O)[O-])CC2)c(OC)c1OC.[Na+] (stereo not drawn) [Example 3, 3-(1-(2,3,4-trimethoxybenzyl)piperazine-4-yl)-2-hydroxy-1-propanesulfonic acid sodium salt]
V, cm/s (arterial blood velocity) ([1]; 0.01 mmol/kg, 0 min of irradiation): 7.1 ± 3.2 cm/s | V, cm/s (arterial blood velocity) ([1]; 0.01 mmol/kg, 10 min of irradiation): 7.00 ± 2.4 cm/s | V, cm/s (arterial blood velocity) ([1]; 0.01 mmol/kg, 20 min of irradiation): 7.5 ± 2.2 cm/s | V, cm/s (arterial blood velocity) ([1]; 0.01 mmol/kg, 30 min of irradiation): 6.4 ± 1.9 cm/s | V, cm/s (arterial blood velocity) ([1]; 0.01 mmol/kg, 40 min of irradiation): 6.6 ± 1.5 cm/s | V, cm/s (arterial blood velocity) ([1]; 0.025 mmol/kg, 0 min of irradiation): 8.5 ± 1.7 cm/s | V, cm/s (arterial blood velocity) ([1]; 0.025 mmol/kg, 10 min of irradiation): 8.4 ± 1.2 cm/s | V, cm/s (arterial blood velocity) ([1]; 0.025 mmol/kg, 20 min of irradiation): 8.4 ± 3.0 cm/s | V, cm/s (arterial blood velocity) ([1]; 0.025 mmol/kg, 30 min of irradiation): 8.9 ± 1.6 cm/s | V, cm/s (arterial blood velocity) ([1]; 0.025 mmol/kg, 40 min of irradiation): 8.5 ± 1.2 cm/s | (MAx-MA0): MA0 * 100% ([2]; 0.5 mmol/L): 6.1% | MA (60 c), % ([2]; 0.5 mmol/L): 63.0 ± 6.1% | (MAx-MA0): MA0 * 100% (Ozagrel: (MA0-MAx): MA0 * 100%) ([2]; 1.25 mmol/L): 7.5% | MA (60 c), % ([2]; 1.25 mmol/L): 62.1 ± 8.9% | (MAx-MA0): MA0 * 100% (Ozagrel: (MA0-MAx): MA0 * 100%) ([2]; 2.5 mmol/L): 24.0% | MA (60 c), % ([2]; 2.5 mmol/L): 51.0 ± 7.2% | (MAx-MA0): MA0 * 100% (Ozagrel: (MA0-MAx): MA0 * 100%) ([2]; 5.0 mmol/L): 77.5% | MA (60 c), % ([2]; 5.0 mmol/L): 25.1 ± 3.2%

COc1ccc(CN2CCN(C(=N)N)CC2)c(OC)c1OC.O=C(O)/C=C/C(=O)O [Example 8, 4-(2,3,4-trimethoxybenzyl)piperazine-1-carboximidamide fumarate]
MA (60 c), % ([2]; 0.2 mmol/L): 60.4 ± 9.1% | (MAx-MA0): MA0 * 100% ([2]; 0.5 mmol/L): 16.1% | MA (60 c), % ([2]; 0.5 mmol/L): 50.7 ± 8.7% | (MAx-MA0): MA0 * 100% (Ozagrel: (MA0-MAx): MA0 * 100%) ([2]; 1.25 mmol/L): 20.5% | MA (60 c), % ([2]; 1.25 mmol/L): 48.0 ± 5.8% | (MAx-MA0): MA0 * 100% (Ozagrel: (MA0-MAx): MA0 * 100%) ([2]; 2.5 mmol/L): 35.1% | MA (60 c), % ([2]; 2.5 mmol/L): 39.2 ± 11.6% | (MAx-MA0): MA0 * 100% (Ozagrel: (MA0-MAx): MA0 * 100%) ([2]; 5.0 mmol/L): 44.7% | MA (60 c), % ([2]; 5.0 mmol/L): 33.4 ± 9.9% | (APTTx-APTT0): APTT0 * 100% ([3]; 1.7 mmol/L): 27.0% | APTT ([3]; 1.7 mmol/L): 61.1 ± 4.4 s | (APTTx-APTT0): APTT0 * 100% ([3]; 2.5 mmol/L): 56.5% | APTT ([3]; 2.5 mmol/L): 71.3 ± 5.2 s | (APTTx-APTT0): APTT0 * 100% ([3]; 4.1 mmol/L): 89.4% | APTT ([3]; 4.1 mmol/L): 91.1 ± 9.9 s | (APTTx-APTT0): APTT0 * 100% ([3]; 8.3 mmol/L): 201.5% | APTT ([3]; 8.3 mmol/L): 145.0 ± 7.3 s | MA, % ([4]; 0.5 mmol/L): 72.3 ± 6.3% | MA, % ([4]; 1.25 mmol/L): 63.5 ± 9.8% | MA, % ([4]; 2.5 mmol/L): 58.5 ± 9.6% | MA, % ([4]; 5.0 mmol/L): 51.3 ± 7.9% | inhibition at 500 µM [4, 6]: 5.2% | inhibition at 1250 µM [4, 7]: 16.8% | inhibition at 2500 µM ([4]; Homo sapiens, 2.5 mmol/L, read-out: (MA0-MAx): MA0 * 100%): 23.3% | inhibition at 5000 µM ([4]; Homo sapiens, 5.0 mmol/L, read-out: (MA0-MAx): MA0 * 100%): 32.8% | MA, % ([5]; 0.2 mmol/L): 18.5 ± 2.8% | MA, % ([5]; 0.5 mmol/L): 14.3 ± 3.0% | MA, % ([5]; 1.25 mmol/L): 8.5 ± 2.8% | MA, % ([5]; 2.50 mmol/L): 2.5 ± 1.6% | inhibition at 200 µM ([5]; Homo sapiens, 0.2 mmol/L, read-out: (MA0-MAx): MA0 * 100%): 2.6% | inhibition at 500 µM [5, 6]: 24.7% | inhibition at 1250 µM [5, 7]: 55.3% | inhibition at 2500 µM ([5]; Homo sapiens, 2.50 mmol/L, read-out: (MA0-MAx): MA0 * 100%): 86.8%
